Laboratory results taken from ChEMBL document CHEMBL3525977, “Differential impact of P-glycoprotein (ABCB1) and breast cancer resistance protein (ABCG2) on axitinib brain accumulation and oral plasma pharmacokinetics” (Drug Metab Dispos, 2011).

Legend:
[1] = tested on: Brain; assay: Drug level in brain of Abcb1a/1b (-/-) FVB mouse at 10 mg/kg, po after 1 hr by liquid chromatography-tandem mass spectrometry relative to wild type FVB mouse; type: ADME, organism-based; parameters: dose 10 mg/kg, route oral; conditions: in vivo
[2] = AUC (0 to 1 hr) in Abcb1a/1b (-/-) FVB mouse plasma at 10 mg/kg, po by liquid chromatography-tandem mass spectrometry; type: ADME, organism-based; parameters: time < 1 hr, dose 10 mg/kg, route oral
[3] = Drug level in brain of Abcb1a/1b (-/-) FVB mouse at 10 mg/kg, po after 1 hr by liquid chromatography-tandem mass spectrometry; type: ADME, organism-based; parameters: dose 10 mg/kg, route oral; conditions: read-out: Drug uptake
[4] = Drug transport in MDCK2 cells at 1 uM after 1 to 4 hrs in presence of 5 uM ABCB1/ABCG2 inhibitor elacridar; type: ADME, cell-based, Canis lupus familiaris; conditions: dog, mdck-ii
[5] = molecular target: ABCB1 (Homo sapiens, UniProt P08183); assay: Drug transport in MDCK2 cells expressing human ABCB1 assessed as transporter-mediated efflux ratio at 1 uM after 1 to 4 hrs; type: ADME, cell-based; conditions: MDCK-MDR1
Sequence of ABCB1 (P08183 whole entry): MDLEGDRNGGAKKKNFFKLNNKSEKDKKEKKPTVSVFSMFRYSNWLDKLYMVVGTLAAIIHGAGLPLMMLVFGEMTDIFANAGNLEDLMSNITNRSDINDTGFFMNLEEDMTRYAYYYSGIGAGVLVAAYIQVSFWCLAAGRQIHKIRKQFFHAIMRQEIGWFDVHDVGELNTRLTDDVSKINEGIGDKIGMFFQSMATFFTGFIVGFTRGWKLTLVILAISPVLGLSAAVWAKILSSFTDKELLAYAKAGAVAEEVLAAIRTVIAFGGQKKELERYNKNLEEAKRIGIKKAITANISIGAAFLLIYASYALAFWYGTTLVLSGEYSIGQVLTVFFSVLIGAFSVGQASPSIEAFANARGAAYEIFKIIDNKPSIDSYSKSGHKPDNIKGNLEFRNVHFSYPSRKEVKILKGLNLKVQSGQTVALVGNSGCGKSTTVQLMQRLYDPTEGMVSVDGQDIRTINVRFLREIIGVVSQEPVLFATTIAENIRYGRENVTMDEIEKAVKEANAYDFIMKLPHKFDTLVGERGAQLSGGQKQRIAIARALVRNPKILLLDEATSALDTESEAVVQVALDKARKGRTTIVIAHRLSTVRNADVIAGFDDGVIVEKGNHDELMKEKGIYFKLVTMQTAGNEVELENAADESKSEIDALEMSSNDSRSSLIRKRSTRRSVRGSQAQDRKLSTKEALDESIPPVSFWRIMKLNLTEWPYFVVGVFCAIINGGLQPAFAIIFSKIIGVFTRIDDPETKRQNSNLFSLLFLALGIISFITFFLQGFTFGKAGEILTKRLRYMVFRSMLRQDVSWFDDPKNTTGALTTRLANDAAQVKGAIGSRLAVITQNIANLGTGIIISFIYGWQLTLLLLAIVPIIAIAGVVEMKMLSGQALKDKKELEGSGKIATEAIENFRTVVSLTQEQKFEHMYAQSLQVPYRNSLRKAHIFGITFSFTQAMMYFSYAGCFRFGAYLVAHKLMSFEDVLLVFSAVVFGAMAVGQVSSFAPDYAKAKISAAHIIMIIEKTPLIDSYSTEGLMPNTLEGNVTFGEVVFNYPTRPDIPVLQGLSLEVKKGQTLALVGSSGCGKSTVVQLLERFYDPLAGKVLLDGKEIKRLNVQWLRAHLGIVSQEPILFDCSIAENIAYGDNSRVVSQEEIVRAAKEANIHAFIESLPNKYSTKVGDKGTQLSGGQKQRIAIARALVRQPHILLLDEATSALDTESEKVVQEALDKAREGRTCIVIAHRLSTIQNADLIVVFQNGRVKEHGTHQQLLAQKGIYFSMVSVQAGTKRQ

[6] = Drug level in brain of Abcg2 (-/-) FVB mouse at 10 mg/kg, po after 4 hrs by liquid chromatography-tandem mass spectrometry; type: ADME, organism-based; parameters: dose 10 mg/kg, route oral; conditions: read-out: Drug uptake
[7] = tested on: Brain; assay: Drug level in brain of Abcg2 (-/-) FVB mouse at 10 mg/kg, po after 4 hrs by liquid chromatography-tandem mass spectrometry relative to wild type FVB mouse; type: ADME, organism-based; parameters: dose 10 mg/kg, route oral; conditions: in vivo
[8] = molecular target: T1, Broad substrate specificity ATP-binding cassette transporter ABCG2 (Mus musculus, UniProt Q7TMS5); assay: Drug transport in MDCK2 cells expressing mouse ABCG2 assessed as transporter-mediated efflux ratio at 1 uM after 1 to 4 hrs; type: ADME, cell-based; conditions: mdck2, 1 µM
T1 sequence (Q7TMS5 whole entry): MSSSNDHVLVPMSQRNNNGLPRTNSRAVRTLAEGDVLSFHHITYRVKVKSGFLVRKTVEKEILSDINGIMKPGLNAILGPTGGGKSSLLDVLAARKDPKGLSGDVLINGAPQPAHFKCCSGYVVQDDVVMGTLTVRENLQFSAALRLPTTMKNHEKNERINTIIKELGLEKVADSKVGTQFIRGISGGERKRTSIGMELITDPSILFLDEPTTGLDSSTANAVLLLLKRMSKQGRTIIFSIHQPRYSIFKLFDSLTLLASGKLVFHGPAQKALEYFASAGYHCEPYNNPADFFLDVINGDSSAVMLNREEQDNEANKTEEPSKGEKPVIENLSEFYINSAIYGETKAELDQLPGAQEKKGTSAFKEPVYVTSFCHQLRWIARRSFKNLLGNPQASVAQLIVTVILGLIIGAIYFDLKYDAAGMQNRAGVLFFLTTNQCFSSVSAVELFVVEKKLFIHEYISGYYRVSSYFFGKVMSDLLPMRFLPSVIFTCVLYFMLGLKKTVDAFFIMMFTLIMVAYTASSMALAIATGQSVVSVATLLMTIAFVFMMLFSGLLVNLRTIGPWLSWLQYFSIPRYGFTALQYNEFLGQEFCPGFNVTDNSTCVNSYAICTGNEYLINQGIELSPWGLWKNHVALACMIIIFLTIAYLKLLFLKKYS

[9] = AUC (0 to 1 hr) in FVB mouse plasma at 10 mg/kg, po by liquid chromatography-tandem mass spectrometry; type: ADME, organism-based; parameters: time < 1 hr, dose 10 mg/kg, route oral
[10] = Drug level in brain of Abcb1a/1b;Abcg2 (-/-) FVB mouse at 10 mg/kg, po after 1 hr by liquid chromatography-tandem mass spectrometry; type: ADME, organism-based; parameters: dose 10 mg/kg, route oral; conditions: read-out: Drug uptake
[11] = AUC (0 to 4 hrs) in Abcb1a/1b (-/-) FVB mouse plasma at 10 mg/kg, po by liquid chromatography-tandem mass spectrometry; type: ADME, organism-based; parameters: time < 4 hr, dose 10 mg/kg, route oral
[12] = Efflux ratio in wild type MDCK2 cells at 1 uM after 1 to 4 hrs; type: ADME, cell-based, Canis lupus familiaris, MDCK-II; conditions: dog, MDCK
[13] = AUC (0 to 1 hr) in Abcg2 (-/-) FVB mouse plasma at 10 mg/kg, po by liquid chromatography-tandem mass spectrometry; type: ADME, organism-based; parameters: time < 1 hr, dose 10 mg/kg, route oral
[14] = Drug transport in MDCK2 cells at 1 uM after 1 to 4 hrs in presence of 5 uM ABCB1 inhibitor zosuquidar; type: ADME, cell-based, Canis lupus familiaris; conditions: dog, mdck-ii
[15] = Drug level in brain of FVB mouse at 10 mg/kg, po after 1 hr by liquid chromatography-tandem mass spectrometry; type: ADME, organism-based; parameters: dose 10 mg/kg, route oral; conditions: read-out: Drug uptake
[16] = AUC (0 to 4 hrs) in Abcb1a/1b;Abcg2 (-/-) FVB mouse plasma at 10 mg/kg, po by liquid chromatography-tandem mass spectrometry; type: ADME, organism-based; parameters: time < 4 hr, dose 10 mg/kg, route oral
[17] = Drug level in brain of Abcb1a/1b (-/-) FVB mouse at 10 mg/kg, po after 4 hrs by liquid chromatography-tandem mass spectrometry; type: ADME, organism-based; parameters: dose 10 mg/kg, route oral; conditions: read-out: Drug uptake
[18] = AUC (0 to 1 hr) in Abcb1a/1b;Abcg2 (-/-) FVB mouse plasma at 10 mg/kg, po by liquid chromatography-tandem mass spectrometry; type: ADME, organism-based; parameters: time < 1 hr, dose 10 mg/kg, route oral
[19] = AUC (0 to 4 hrs) in FVB mouse plasma at 10 mg/kg, po by liquid chromatography-tandem mass spectrometry; type: ADME, organism-based; parameters: time < 4 hr, dose 10 mg/kg, route oral
[20] = Drug level in brain of Abcg2 (-/-) FVB mouse at 10 mg/kg, po after 1 hr by liquid chromatography-tandem mass spectrometry; type: ADME, organism-based; parameters: dose 10 mg/kg, route oral; conditions: read-out: Drug uptake
[21] = AUC (0 to 4 hrs) in Abcg2 (-/-) FVB mouse plasma at 10 mg/kg, po by liquid chromatography-tandem mass spectrometry; type: ADME, organism-based; parameters: time < 4 hr, dose 10 mg/kg, route oral
[22] = tested on: Brain; assay: Drug level in brain of Abcb1a/1b;Abcg2 (-/-) FVB mouse at 10 mg/kg, po after 1 hr by liquid chromatography-tandem mass spectrometry relative to wild type FVB mouse; type: ADME, organism-based; parameters: dose 10 mg/kg, route oral; conditions: in vivo
[23] = tested on: Brain; assay: Drug level in brain of Abcg2 (-/-) FVB mouse at 10 mg/kg, po after 1 hr by liquid chromatography-tandem mass spectrometry relative to wild type FVB mouse; type: ADME, organism-based; parameters: dose 10 mg/kg, route oral; conditions: in vivo
[24] = tested on: Brain; assay: Drug level in brain of Abcb1a/1b;Abcg2 (-/-) FVB mouse at 10 mg/kg, po after 4 hrs by liquid chromatography-tandem mass spectrometry relative to wild type FVB mouse; type: ADME, organism-based; parameters: dose 10 mg/kg, route oral; conditions: in vivo
[25] = Drug level in brain of FVB mouse at 10 mg/kg, po after 4 hrs by liquid chromatography-tandem mass spectrometry; type: ADME, organism-based; parameters: dose 10 mg/kg, route oral; conditions: read-out: Drug uptake
[26] = Drug level in brain of Abcb1a/1b;Abcg2 (-/-) FVB mouse at 10 mg/kg, po after 4 hrs by liquid chromatography-tandem mass spectrometry; type: ADME, organism-based; parameters: dose 10 mg/kg, route oral; conditions: read-out: Drug uptake
[27] = molecular target: T2, ABCG2 (Homo sapiens, UniProt Q9UNQ0); assay: Drug transport in MDCK2 cells expressing human ABCG2 assessed as transporter-mediated efflux ratio at 1 uM after 1 to 4 hrs; type: ADME, cell-based
T2 sequence (Q9UNQ0 whole entry): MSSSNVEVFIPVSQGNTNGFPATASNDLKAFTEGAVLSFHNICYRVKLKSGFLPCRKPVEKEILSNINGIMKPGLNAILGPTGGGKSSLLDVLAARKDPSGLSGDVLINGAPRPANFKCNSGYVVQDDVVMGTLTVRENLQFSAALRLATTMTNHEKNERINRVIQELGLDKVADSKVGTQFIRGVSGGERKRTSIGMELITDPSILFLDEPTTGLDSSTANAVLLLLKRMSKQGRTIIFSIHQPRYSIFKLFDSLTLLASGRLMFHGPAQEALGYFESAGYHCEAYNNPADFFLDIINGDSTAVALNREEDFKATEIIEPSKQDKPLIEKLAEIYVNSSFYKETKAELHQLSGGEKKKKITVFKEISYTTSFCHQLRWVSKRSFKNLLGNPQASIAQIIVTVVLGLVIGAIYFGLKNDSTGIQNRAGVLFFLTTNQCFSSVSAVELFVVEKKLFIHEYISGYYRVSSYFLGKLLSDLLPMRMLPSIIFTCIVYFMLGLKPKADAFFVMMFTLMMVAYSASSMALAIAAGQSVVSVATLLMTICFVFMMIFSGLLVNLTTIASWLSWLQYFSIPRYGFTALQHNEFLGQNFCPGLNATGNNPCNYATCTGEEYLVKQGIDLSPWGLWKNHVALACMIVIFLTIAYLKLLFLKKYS

[28] = tested on: Brain; assay: Drug level in brain of Abcb1a/1b (-/-) FVB mouse at 10 mg/kg, po after 4 hrs by liquid chromatography-tandem mass spectrometry relative to wild type FVB mouse; type: ADME, organism-based; parameters: dose 10 mg/kg, route oral; conditions: in vivo

Ratio [1]: 6.3 | AUC(0-t) at 1 h [2]: 950 ng·h/mL | concentration at 1 h [3]: 640 ng/g | Drug transport [4]: Not Active | efflux ratio at 1 µM [5]: 5.3 | concentration at 4 h [6]: 7 ng/g | Ratio [7]: 1.1 | Ratio [8]: 3.4 | AUC(0-t) at 1 h [9]: 1090 ng·h/mL | concentration at 1 h [10]: 1980 ng/g | AUC(0-t) at 4 h [11]: 3950 ng·h/mL | efflux ratio at 1 µM [12]: 1.4 | AUC(0-t) at 1 h [13]: 1760 ng·h/mL | Drug transport [14]: Not Active | concentration at 1 h [15]: 100 ng/g | AUC(0-t) at 4 h [16]: 4950 ng·h/mL | concentration at 4 h [17]: 47 ng/g | AUC(0-t) at 1 h [18]: 1400 ng·h/mL | AUC(0-t) at 4 h [19]: 2680 ng·h/mL | concentration at 1 h [20]: 80 ng/g | AUC(0-t) at 4 h [21]: 4670 ng·h/mL | Ratio [22]: 19.6 | Ratio [23]: 0.8 | Ratio [24]: 42.4 | concentration at 4 h [25]: 6 ng/g | concentration at 4 h [26]: 250 ng/g | efflux ratio at 1 µM [27]: 1.3 | Ratio [28]: 7.9
SMILES: CNC(=O)c1ccccc1Sc1ccc2c(/C=C/c3ccccn3)n[nH]c2c1 [AXITINIB]
